From the supplement of paper PMC5579334
± gives the standard deviation of the averaged measurements.

Experiments:
HS-PSS [1] = test: drug sensitivity score (DSS, CellTiter-Glo viability, 72 h) (DSS (dimensionless)); higher = more sensitive; extreme values may be limits of the assay
Summary of the method: (§1)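 Viability of MPNST cell lines and primary human Schwann cells was read as CellTiter-Glo ATP luminescence after 72 h at 37 °C, 5% CO2, in 384-well plates seeded with 750–1000 cells per well. Each compound had been preprinted at five concentrations in 10-fold steps. Signals were scaled between vehicle and positive-control wells, duplicates averaged where present, and fitted with four-parameter logistic curves. Drug sensitivity score and relative IC50 (censored at the top concentration) come from those fits, and percent inhibition is taken at the top concentration.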

HS-Sch-2 [2] = test: as above
Summary of the method: as §1

[3] = system: HSC1 (primary human Schwann cells); test: as above
Summary of the method: as §1

[4] = system: HSC2 (primary human Schwann cells); test: as above
Summary of the method: as §1

S1507-2 [5] = test: as above
Summary of the method: as §1

S462 [6] = test: as above
Summary of the method: as §1

ST8814 [7] = test: as above
Summary of the method: as §1

STS26T [8] = test: as above
Summary of the method: as §1

YST-1 [9] = test: as above
Summary of the method: as §1

HS-PSS [10] = test: drug sensitivity score (DSS, CellTox-Green cytotoxicity, 72 h) (DSS (dimensionless)); higher = more cytotoxic; extreme values may be limits of the assay
Summary of the method: (§2)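 MPNST cell lines and primary human Schwann cells were grown for 72 h at 37 °C in 384-well plates containing five 10-fold compound dilutions. CellTox-Green, added before seeding at a final 1:1000 dilution, gave fluorescence from DNA released by disrupted cells, and signals were scaled to vehicle and positive-control wells. Curves were fitted with a four-parameter logistic model. Drug sensitivity score and relative IC50 come from these fits, with IC50 censored at the top concentration.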

[11] = system: HSC1 (primary human Schwann cells); test: as above
Summary of the method: as §2

[12] = system: HSC2 (primary human Schwann cells); test: as above
Summary of the method: as §2

S1507-2 [13] = test: as above
Summary of the method: as §2

ST8814 [14] = test: as above
Summary of the method: as §2

STS26T [15] = test: as above
Summary of the method: as §2

HS-PSS [16] = test: % inhibition of CellTiter-Glo viability at highest tested concentration (72 h), relative to DMSO and benzethonium chloride controls; higher = more inhibition
Summary of the method: as §1

HS-Sch-2 [17] = test: as above
Summary of the method: as §1

[18] = system: HSC1 (primary human Schwann cells); test: as above
Summary of the method: as §1

[19] = system: HSC2 (primary human Schwann cells); test: as above
Summary of the method: as §1

S1507-2 [20] = test: as above
Summary of the method: as §1

S462 [21] = test: as above
Summary of the method: as §1

ST8814 [22] = test: as above
Summary of the method: as §1

STS26T [23] = test: as above
Summary of the method: as §1

YST-1 [24] = test: as above
Summary of the method: as §1

Row | SMILES | drug sensitivity score (HS-PSS [1]) | drug sensitivity score (HS-Sch-2 [2]) | drug sensitivity score [3] | drug sensitivity score [4] | drug sensitivity score (S1507-2 [5]) | drug sensitivity score (S462 [6]) | drug sensitivity score (ST8814 [7]) | drug sensitivity score (STS26T [8]) | drug sensitivity score (YST-1 [9]) | drug sensitivity score (HS-PSS [10]) | drug sensitivity score [11] | drug sensitivity score [12] | drug sensitivity score (S1507-2 [13]) | drug sensitivity score (ST8814 [14]) | drug sensitivity score (STS26T [15]) | % inhibition (HS-PSS [16]) [%] | % inhibition (HS-Sch-2 [17]) [%] | % inhibition [18] [%] | % inhibition [19] [%] | % inhibition (S1507-2 [20]) [%] | % inhibition (S462 [21]) [%] | % inhibition (ST8814 [22]) [%] | % inhibition (STS26T [23]) [%] | % inhibition (YST-1 [24]) [%]
1 | CC1(C)CNc2cc(NC(=O)c3cccnc3NCc3ccncc3)ccc21 [Motesanib] (max concentration tested 10000 nM) | 0 | 0 | 0 | 0.232 | 0 | 0 | 0 | 0 | 0.25 | 0 | 0 | 0 | 0.104 ± 0.15 | 0 | 0 | 5.39 | 7.18 | 9.4 | 15.5 | 6.17 ± 1.9 | 4.64 ± 6.4 | -4.55 | 4.89 | 15
2 | CN(C)CCN1C(=O)c2cccc3cc(N)cc(c23)C1=O [Amonafide] (max concentration tested 10000 nM) | 6.59 | 8.84 | 7.05 | 6.42 | 8.84 ± 0.35 | 8.23 ± 0.65 | 8.9 | 5.83 | 11.1 | 4.02 | 0 | 0.087 | 2.18 ± 0.64 | 3.57 | 0.0609 | 93.8 | 99.9 | 69.3 | 76.3 | 90.4 ± 2 | 90.9 ± 2.4 | 101 | 78.7 | 100
3 | CC(C)C[C@H](NC(=O)[C@H](CCc1ccccc1)NC(=O)CN1CCOCC1)C(=O)N[C@@H](Cc1ccccc1)C(=O)N[C@@H](CC(C)C)C(=O)[C@@]1(C)CO1 [Carfilzomib] (max concentration tested 1000 nM) | 23.3 | 31.2 | 23 | 24.4 | 21.7 ± 1.4 | 29 ± 2 | 24.8 | 24.9 | 28.1 | 17.5 | 19.3 | 19.7 | 21.4 ± 2.3 | 21.7 | 21.5 | 99.9 | 102 | 103 | 101 | 102.9 ± 0.73 | 104 ± 1.3 | 102 | 103 | 101
4 | Nc1ncnc2c1nc(Cl)n2[C@@H]1O[C@H](CO)[C@@H](O)[C@H]1O [8-chloro-adenosine] (max concentration tested 50000 nM) | 5.54 | 11.1 | 9.38 | 9.83 | 12.4 ± 2.1 | 14.21 ± 0.085 | 9.48 | 12.3 | 12.9 | 0 | 0 | 0 | 1.46 ± 1.7 | 0.449 | 6.31 | 55.6 | 80 | 73.8 | 73.7 | 74 ± 0.56 | 82.1 ± 4.6 | 54.5 | 86.8 | 88.6
5 | C[C@@H]1C[C@H]2[C@@H]3CCC4=CC(=O)C=C[C@]4(C)[C@@]3(F)[C@@H](O)C[C@]2(C)[C@@]1(O)C(=O)CO [Dexamethasone] (max concentration tested 10000 nM) | 0 | 0 | 0 | 0 | 1.35 ± 1.9 | 0.0796 ± 0.11 | 4.78 | 0 | 2.91 | 0 | 0 | 0 | 0 | 0 | 0 | -11.7 | 11.7 | -11.8 | -7.28 | 16.5 ± 13 | 9.85 ± 6.5 | 22.9 | 3.98 | 6.77
6 | CC(=O)O[C@H]1C(=O)[C@@]2(C)[C@H]([C@H](OC(=O)c3ccccc3)[C@]3(O)C[C@H](OC(=O)[C@H](O)[C@@H](NC(=O)c4ccccc4)c4ccccc4)C(C)=C1C3(C)C)[C@]1(OC(C)=O)CO[C@@H]1C[C@@H]2O [Paclitaxel] (max concentration tested 1000 nM) | 12.2 | 23.3 | 18 | 19.1 | 17.3 ± 0.6 | 28.8 ± 1.5 | 18.3 | 28.1 | 23.7 | 0 | 17.8 | 20.3 | 15.9 ± 1.1 | 18.6 | 33.8 | 45.7 | 93 | 70.6 | 73.9 | 84.6 ± 1 | 99.3 ± 1.5 | 94.5 | 99.6 | 81.6
7 | COc1ccc(-c2cc3c(C)nc(N)nc3n([C@H]3CC[C@H](OCCO)CC3)c2=O)cn1 (max concentration tested 10000 nM) | 11.7 | 14.9 | 18.3 | 16.7 | 22.5 ± 0.84 | 16.6 ± 2 | 18.8 | 20.5 | 25.6 | 0.29 | 2.35 | 2.71 | 6.9 ± 1.9 | 6.06 | 4.38 | 70.2 | 97.5 | 92.1 | 92 | 98.4 ± 1.9 | 86.96 ± 0.63 | 99.7 | 92.3 | 101
8 | CC(C)(C)Cn1c(N)nc2ccc(-c3[nH]c(C(C)(C)C)nc3-c3ccc(F)cc3)nc21 [Ralimetinib] (max concentration tested 10000 nM) | 1.76 | 2.8 | 2.2 | 3.4 | 2.27 ± 0.73 | 0.51 ± 0.72 | 2.03 | 1.33 | 7.83 | 0 | 0 | 0 | 0 | 0 | 0 | 45.7 | 54.9 | 34.9 | 34 | 33.8 ± 6.8 | 13.4 ± 7.5 | 28.2 | 28.7 | 41.8
9 | CCN(CC)CCNC(=O)c1c(C)[nH]c(/C=C2\C(=O)Nc3ccc(F)cc32)c1C [Sunitinib] (max concentration tested 1000 nM) | 0 | 0 | 0 | 0 | 0.923 ± 1.3 | 0.473 ± 0.41 | 0.732 | 0 | 0 | 0 | 0 | 0 | 17.2 ± 24 | 0 | 0 | 11.8 | 6.65 | -2.06 | -10.9 | 17.7 ± 11 | 16.1 ± 0.67 | 14.7 | 8.24 | -7.4
10 | CO[C@@]12[C@H](COC(N)=O)C3=C(C(=O)C(C)=C(N)C3=O)N1C[C@@H]1N[C@@H]12 [Mitomycin C] (max concentration tested 10000 nM) | 0.31 | 0.9 | 2.63 | 2.34 | 3.18 ± 0.05 | 3.23 ± 0.21 | 3.61 | 2.31 | 4.11 | 0 | 2.29 | 2.91 | 2.38 ± 3 | 5.46 | 1.57 | 16.2 | 28.5 | 52.1 | 51.3 | 69.5 ± 1.9 | 68.5 ± 1.9 | 77.4 | 50.2 | 55.7
11 | Nc1nc2[nH]cnc2c(=S)[nH]1 [Thioguanine] (max concentration tested 10000 nM) | 7.46 | 8.53 | 0.0001 | 0 | 4.38 ± 1.2 | 7.88 ± 0.29 | 10.7 | 10.6 | 8.84 | 0 | 0 | 0 | 0.992 ± 1.4 | 0.689 | 4.01 | 76.4 | 79.2 | 10.4 | -7.39 | 60.8 ± 2.1 | 74.5 ± 5.8 | 80.4 | 81 | 88.8
12 | CC[C@@H]1C(=O)OC[C@@H]1Cc1cncn1C [Pilocarpine] (max concentration tested 40000 nM) | 0 | 0.48 | 0 | 0 | 0.028 ± 0.04 | 0 | 0 | 0 | 0 | 0 | 0 | 0 | 0 | 0 | 0 | 3.53 | 14.2 | -5.47 | -5.33 | -0.921 ± 8.8 | -8.07 ± 3.1 | -5.43 | -5.95 | -0.64
13 | C[C@]12CC[C@@H]3c4ccc(O)cc4C[C@@H](CCCCCCCCC[S+]([O-])CCCC(F)(F)C(F)(F)F)[C@H]3[C@@H]1CC[C@@H]2O (some centres not stated) [Fulvestrant] (max concentration tested 1000 nM) | 0 | 0 | 0.178 | 0.538 | 0 | 0 | 0 | 0 | 0 | 0 | 0 | 0 | 1.33 ± 1.9 | 0 | 0 | 10.3 | 8.02 | 11.4 | 18.2 | -11.9 ± 2.2 | 6.51 ± 4.8 | -2.59 | 4.69 | 1.11
